Measurements: patent US9315483B2, “Synthesis of deuterated catechols and benzo[D][1,3]dioxoles and derivatives thereof” (Concert Pharmaceuticals, Inc., priority 2007, dated 2016)

Key:
in vitro [1] = assay: in vitro
Procedure: (§1) Method: Test Compound A was evaluated at a concentration of 1 μM for apparent metabolic stability by the in vitro t1/2 method described by Obach et al. See Obach R S, Baxter J G, Liston T E, Silber B M, Jones B C, MacIntyre F, et al. The prediction of human pharmacokinetic parameters from preclinical and in vitro metabolism data. JPET 1997; 283:46-58.

in vitro [2] = assay: in vitro; remark: listed apart in the source
Procedure: as §1

CYP2D6 = CYP2D6 (Homo sapiens, UniProt P10635); assay: in vitro
Procedure: Method: This study was conducted according to the procedure established by Bertelsen et al for paroxetine. See Bertelsen K M, Venkatakrishnan K, von Moltke L L, Obach S, Greenblatt, D J. Apparent mechanism-based inhibition of human CYP2D6 in vitro by paroxetine: comparison with fluoxetine and quinidine. Drug Met Disp 2003; 31:289-293. Briefly, the test articles were pre-incubated with human liver microsomes for various times followed by the addition of dextromethorphan, a CYP2D6 substrate. The formation of dextrorphan, a CYP2D6-specific metabolite of dextromethorphan, was monitored as a measure of CYP2D6 activity.

[3] = molecular target: human cDNA-expressed CYP2D6 (Homo sapiens, UniProt P10635); assay: Drug-drug interaction potential with tamoxifen: formation of endoxifen from N-desmethyl TAM after pre-incubation with CYP2D6
Excerpt: Objective: The objective of this study was to determine the potential for the deuterated paroxetine, (3S,4R)-3-((2,2-d2-benzo[d][1,3]dioxol-5-yloxy)methyl)-4-(4-fluorophenyl)piperidine, HCl salt-hemihydrate, to inhibit the formation of endoxifen using human cDNA-expressed CYP2D6 as compared with paroxetine. The deuterated paroxetine, (3S,4R)-3-((2,2-d2-benzo[d][1,3]dioxol-5-yloxy)methyl)-4-(4-fluorophenyl)piperidine, HCl salt-hemihydrate, will be referred to as “Test Compound A” in the following examples and the figures.
Method: Test Compound A was pre-incubated for 20 min at various concentrations with human cDNA-expressed CYP2D6 (500 pmol/mL) in the presence of NADPH, after which aliquots of the reaction mixture were diluted 1:10 in buffer containing NADPH. N-desmethyl TAM (50 μM) was then added to the diluted pre-incubation mixtures. After 45 min of incubation, endoxifen concentrations were determined by LC-MS/MS.

[4] = for vasomotor symptoms (VMS); expected

CYP2D6, sequence (P10635 whole entry): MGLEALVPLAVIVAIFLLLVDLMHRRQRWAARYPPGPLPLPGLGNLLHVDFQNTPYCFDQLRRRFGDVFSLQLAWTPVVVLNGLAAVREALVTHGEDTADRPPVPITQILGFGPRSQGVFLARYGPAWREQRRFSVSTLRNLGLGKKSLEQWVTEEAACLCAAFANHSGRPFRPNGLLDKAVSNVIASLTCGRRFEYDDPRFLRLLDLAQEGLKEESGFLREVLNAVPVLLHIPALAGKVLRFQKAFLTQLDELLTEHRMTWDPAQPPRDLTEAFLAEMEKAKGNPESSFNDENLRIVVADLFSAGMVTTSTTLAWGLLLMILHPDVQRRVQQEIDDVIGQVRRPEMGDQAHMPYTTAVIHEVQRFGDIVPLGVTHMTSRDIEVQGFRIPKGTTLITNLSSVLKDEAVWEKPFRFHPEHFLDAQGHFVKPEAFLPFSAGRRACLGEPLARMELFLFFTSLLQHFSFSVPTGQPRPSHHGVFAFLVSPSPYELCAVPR
human cDNA-expressed CYP2D6, sequence (P10635 whole entry): as above

Structure (SMILES) | half-life at 1 μM (in vitro [1]; human, microsomes) [min] | half-life at 1 μM (in vitro [2]; rat, microsomes) [min] | KI (inactivation) (CYP2D6; human, microsomes) [nM] | kinact (CYP2D6; human, microsomes) [s⁻¹] | inhibition of CYP2D6, expressed as the percentage of dextrorphan formation relative to control (CYP2D6; microsomes) | t1/2 (in vitro [1]; Human liver microsomes 0.5 mg/mL, 1 μM) [min] | mean relative amount remaining at the end of 30 minutes incubation (in vitro [1]; human hepatic microsomes 0.5 mg/mL, 1 μM, n=4) [%] | t1/2 less than the corresponding value for paroxetine (in vitro [1]; human liver microsomes) [%] | endoxifen produced in the presence of Test Compound A relative to in the presence of paroxetine ([3]; highest concentration (25 μM)) [fold] | change in the formation of endoxifen from N-desmethyl tamoxifen ([3]; over the range of concentrations tested (0-25 μM), 20 min pre-incubation with NADPH, N-desmethyl TAM 50 μM, 45 min) | maximum plasma concentration in humans [4] [nM] | t1/2 (in vitro [2]; Rat liver microsomes 0.5 mg/mL, 1 μM) [min] | mean relative amount remaining at the end of 30 minutes incubation (in vitro [2]; rat hepatic microsomes 0.5 mg/mL, 1 μM, n=4) [%] | t1/2 less than the corresponding value for paroxetine (in vitro [2]; rat liver microsomes) | CYP2D6 activity (percentage of dextrorphan formation relative to control) (CYP2D6; 0-10 μM concentration range) | inhibition of CYP2D6 (CYP2D6; as the concentration approached 25 μM) | mechanism-based inactivation of CYP2D6 (CYP2D6; at concentrations up to 10 μM) | kINACT for CYP2D6 inactivation (CYP2D6; human liver microsomes)
Fc1ccc([C@@H]2CCNC[C@H]2COc2ccc3c(c2)OCO3)cc1 [Paroxetine, paroxetine, reference compound] | 49 ± 7.8 | 20.4 ± 2.1 | 1960 | 0.00133 | concentration- and time-dependent inhibition | – | – | – | – | – | – | – | – | – | – | – | – | –
Cl.Cl.O.[2H]C1([2H])Oc2ccc(OC[C@@H]3CNCC[C@H]3c3ccc(F)cc3)cc2O1.[2H]C1([2H])Oc2ccc(OC[C@@H]3CNCC[C@H]3c3ccc(F)cc3)cc2O1 [Test Compound A, (3S,4R)-3-((2,2-d2-benzo[d][1,3]dioxol-5-yloxy)methyl)-4-(4-fluorophenyl)piperidine, HCl salt-hemihydrate] | – | – | – | – | – | 20.9 ± 2.0 | 37.2±3.9 | ~57 | 12 | little to no change | ≤ 30 | 15.5 ± 1.6 | 25.5±4.3 | approximately 24% | remained similar to that of control | Some inhibition | does not exhibit mechanism-based inactivation | could not be calculated
